Each structure is given as a SMILES string.

The record followed here is US20100209960A1, “METHOD FOR MEASURING MITOCHONDRIAL MEMBRANE POTENTIAL IN VERTEBRATE CELLS” (MERCK SHARP & DOHME CORP., priority 2007, published 2010).

Data set [1] deals with mitochondrial membrane potential in CHO—K1 cells. As to the kind of experiment: cells. Format: cell-based. The note with it: for EC50: Cricetulus griseus, read-out: EC50 (decrease of mitochondrial membrane potential). Here is the method: 24 hours before assay, CHO—K1 cells were seeded in a 384 well plate at 75,000 cells per well in 50 μl growth medium (Iscove's Modified Dulbecco's Medium Invitrogen, 12440-046, 10% Fetal Bovine Serum (Invitrogen, 26140-095), 1× HT Supplement (Invitrogen, 11067-030) 1× Penicillin-Streptomycin solution (Hyclone, SV30010) 2 mM Glutamine (Hyclone, SH30034.01). Cells were then incubated overnight at 37° C., 5% carbon dioxide. When commencing the assay, 50 μl of assay buffer (50 mM Hepes, pH 7.4 150 mM KCL, 1600 mM NaCl, 25 mM D-(+)-glucose) was added to cells. […] 10 μl of 9 μM fluorescent dye TMRM (in 10% DMSO) was added and cells are incubated for 20 minutes at room temperature. 10 μl of 16 mM Brilliant Black BN prepared in D-PBS was added to yield a 1.6 mM final concentration of Brilliant Black BN. The fluorescence was immediately read on a Molecular Devices Analyst HT fluorescent plate reader, using an excitation wavelength of 530 nm and measuring the emission at 580 nm.
24 hours before assay, CHO—K1 cells were seeded in a 384 well plate at 75,000 cells per well in 50 μl growth medium (Iscove's Modified Dulbecco's Medium, lnvitrogen, 12440-046, 10% Fetal Bovine Serum (Invitrogen, 26140-095), 1× HT Supplement (Invitrogen, 11067-030) 1× Penicillin-Streptomycin solution (Hyclone, SV30010) 2 mM Glutamine (Hyclone, SH30034.01). Cells were then incubated overnight at 37° C., 5% carbon dioxide. When commencing the assay, 50 μl of assay buffer (50 mM Hepes, pH 7.4 150 mM KCL, 1600 mM NaCl, 25 mM D-(+)-glucose) was added to cells. 1 μl of the various amounts of the cation ionophore, H+—K+ antiporter, nigericin, was added and the cells are then incubated for 30 minutes at 37° C., 5% carbon dioxide. 10 μl of 9 μM fluorescent dye TMRM (in 10% DMSO) was added and cells are incubated for 20 minutes at room temperature. 10 μl of 16 mM Brilliant Black BN prepared in D-PBS was added yield a 1.6 mM final concentration of Brilliant Black BN. The fluorescence was immediately read on a Molecular Devices Analyst HT fluorescent plate reader, using an excitation wavelength of 530 nm and measuring the emission at 580 nm.

Data set [2] has the same test system. As to the kind of experiment: Homogeneous TMRM/Brilliant Black BN mitochondrial membrane potential assay, 1536 well plate. Format: cell-based. As to conditions: Cricetulus griseus, 0.5 h, 30 minutes incubation, TMRM fluorescence, read-out: EC50 (decrease of mitochondrial membrane potential). The procedure: 24 hours before assay, CHO—K1 cells were seeded in a 1536 well plate at 10,000 cells per well in 4 μl growth medium (Iscove's Modified Dulbecco's Medium Invitrogen, 12440-046, 10% Fetal Bovine Serum (Invitrogen, 26140-095), 1×HT Supplement (Invitrogen, 11067-030) 1× Penicillin-Streptomycin solution (Hyclone, SV30010) 2 mM Glutamine (Hyclone, SH30034.01). Cells were then incubated overnight at 37° C., 5% carbon dioxide. When commencing the assay, 4 μl of assay buffer (50 mM Hepes, pH 7.4 150 mM KCL, 1600 mM NaCl, 25 mM D-(+)-glucose) was added to cells. 80 nl of various amounts of the mitochondrial uncoupling compound, CCCP, was added and the cells were then incubated for 30 minutes at 37° C., 5% carbon dioxide. 0.8 μl of 6 μM fluorescent dye TMRM (in 20% DMSO) was added and cells were incubated for 20 minutes at room temperature. 0.8 μl of 16 mM Brilliant Black BN prepared in D-PBS was added yield a 1.6 mM final concentration of Brilliant Black BN. The fluorescence was immediately read on a Molecular Devices Tetra fluorescent plate reader, using an excitation wavelength of 530 nm and measuring the emission at 580 nm while employing a custom filter (Omega Optical) whose transmission wavelength was 580 nm±10 nm.

Turning to `N#CC(C#N)=NNc1cccc(Cl)c1` [CCCP, carbonylcyanide m-chlorophenylhydrazone], the EC50 (commonly the concentration needed to bring the measured effect to its halfway point) came out at 0.25 µM in data set [1] (0.5 h, adherent CHO—K1 cells, 384 well plate, 30 minutes incubation, TMRM fluorescence) and 0.18 µM in data set [2].
In the case of `O=[N+]([O-])c1ccc(O)c([N+](=O)[O-])c1` [2,4-DNP, 2,4-dinitrophenol], the half-maximal effective concentration (EC50) in data set [1] (CHO-K1, 0.5 h) stood at 5 µM.
Consider `CO[C@@H]1C[C@@H](C[C@H]2CC[C@H](C)[C@H]([C@@H](C)C(=O)O)O2)O[C@]2(O[C@](C)([C@H]3CC[C@@](C)([C@@H]4O[C@@H]([C@H]5O[C@@](O)(CO)[C@H](C)C[C@@H]5C)C[C@@H]4C)O3)C[C@H]2C)[C@@H]1C` [Nigericin, nigericin], for which, in data set [1], the “Effect at greater levels of nigericin” value was “toxicity and membrane depolarization”. For the same molecule, the “Effect on mitochondrial membrane potential” value in data set [1] (adherent CHO—K1 cells, 384 well plate, increasing amounts of nigericin) was “caused hyperpolarization of the mitochondrial membrane”.
